How the values were obtained:
MCF10A-RCP cells = details: 30 uM U0126
Description: Cell proliferation and colony formation. Cells were plated at a density of 5000 cells/well in 96-well plates, and cell proliferation was measured in quadruplicate (ie, 4 wells per condition) using WST-1 (Roche) according to the manufacturer's protocol. For the MAPK inhibition assays, cells were treated with MEK inhibitor U0126 (Promega) overnight in medium with 0.5% serum before being re-plated into 96-well plates.

[1] = system: ERK phosphorylation in MCF10A-RCP cells
Description: Western blot analysis. Whole cell lysates were prepared using RIPA buffer. The proteins were separated by SDS-PAGE and transferred to Hybond-P PVDF membrane (GE Healthcare). Antibodies to RCP (Genway, Catalog Number (CN): 15-288-21574A), β-actin (Sigma, CN: A5441), phospho-Akt (Cell Signaling Technology, CN: 9271), Akt (Cell Signaling Technology, CN: 9272), phospho-Erk (Cell Signaling Technology, CN: 9101), and Erk (Cell Signalling, CN: 9102) were used to probe the membrane, and antibody-protein complex was detected by HRP-conjugated antibodies and ECL (Amersham Biosciences).
For the MAPK inhibition assays, cells were treated with MEK inhibitor U0126 (Promega) overnight in medium with 0.5% serum before being re-plated into 96-well plates.

N#CC(=C(/N)Sc1ccccc1N)/C(C#N)=C(\N)Sc1ccccc1N [U0126]
proliferation (MCF10A-RCP cells): reduction of proliferation down to control levels
RCP-induced phosphorylation of ERK ([1]; 30 μM of U0126): reduced to baseline
ERK phosphorylation status ([1]; range of U0126 concentrations): concentration dependent

From patent US8663915B2, “Methods of controlling tumorigenesis and diagnosing the risk thereof” (Agency for Science, Technology and Research, priority 2007, dated 2014)
